pIC50, pKd: −log10 of the molar value.
Tests used:
CDK8/Cyclin C = CDK8/Cyclin C (Homo sapiens, UniProt P49336); assay: Inhibition of His tagged human recombinant CDK8/Cyclin C expressed in baculovirus expression system incubated for 15 mins by FRET-based LanthaScreen binding competition assay
MV4-11 [1] = assay: Antiproliferative activity against human MV4-11 cells assessed as inhibition of cell growth incubated for 10 days and replacement with fresh media with compounds on day 5 by CTG assay; format: functional, cell-based
[2] = Metabolic stability in mouse liver microsomes assessed as intrinsic clearance at 1 uM preincubated for 10 mins followed by NADPH addition and measured for 60 mins by LC-MS/MS analysis; format: ADME, Microsome; conditions: read-out: CLH
[3] = Metabolic stability in rat liver microsomes assessed as intrinsic clearance at 1 uM preincubated for 10 mins followed by NADPH addition and measured for 60 mins by LC-MS/MS analysis; format: ADME, Microsome; conditions: read-out: CLH
[4] = Metabolic stability in human liver microsomes assessed as intrinsic clearance at 1 uM preincubated for 10 mins followed by NADPH addition and measured for 60 mins by LC-MS/MS analysis; format: ADME, Microsome; conditions: read-out: CLH
[5] = Volume of distribution in CD-1 mouse at 5 mg/kg, po or 1 mg/kg, iv administered as single dose and measured for 24 hrs by LC-MS/MS analysis; format: ADME, organism-based; conditions: in vivo
[6] = Bioavailability in CD-1 mouse at 5 mg/kg, po or 1 mg/kg, iv administered as single dose and measured for 24 hrs by LC-MS/MS analysis; format: ADME, organism-based; conditions: in vivo
[7] = target: Dual specificity protein kinase CLK1 (Homo sapiens, UniProt P49759); assay: Binding affinity to CLK1 (unknown origin) assessed as dissociation constant by competitive binding assay
[8] = target: Dual specificity protein kinase CLK2 (Homo sapiens, UniProt P49760); assay: Binding affinity to CLK2 (unknown origin) assessed as dissociation constant by competitive binding assay
[9] = target: Dual specificity tyrosine-phosphorylation-regulated kinase 1B (Homo sapiens, UniProt Q9Y463); assay: Binding affinity to DYRK1B (unknown origin) assessed as dissociation constant by competitive binding assay
[10] = target: Glycogen synthase kinase-3 alpha (Homo sapiens, UniProt P49840); assay: Binding affinity to GSK3A (unknown origin) assessed as dissociation constant by competitive binding assay
[11] = target: T1, Serine/threonine-protein kinase LATS2 (Homo sapiens, UniProt Q9NRM7); assay: Binding affinity to LATS2 (unknown origin) assessed as dissociation constant by competitive binding assay
T1 sequence (Q9NRM7 whole entry): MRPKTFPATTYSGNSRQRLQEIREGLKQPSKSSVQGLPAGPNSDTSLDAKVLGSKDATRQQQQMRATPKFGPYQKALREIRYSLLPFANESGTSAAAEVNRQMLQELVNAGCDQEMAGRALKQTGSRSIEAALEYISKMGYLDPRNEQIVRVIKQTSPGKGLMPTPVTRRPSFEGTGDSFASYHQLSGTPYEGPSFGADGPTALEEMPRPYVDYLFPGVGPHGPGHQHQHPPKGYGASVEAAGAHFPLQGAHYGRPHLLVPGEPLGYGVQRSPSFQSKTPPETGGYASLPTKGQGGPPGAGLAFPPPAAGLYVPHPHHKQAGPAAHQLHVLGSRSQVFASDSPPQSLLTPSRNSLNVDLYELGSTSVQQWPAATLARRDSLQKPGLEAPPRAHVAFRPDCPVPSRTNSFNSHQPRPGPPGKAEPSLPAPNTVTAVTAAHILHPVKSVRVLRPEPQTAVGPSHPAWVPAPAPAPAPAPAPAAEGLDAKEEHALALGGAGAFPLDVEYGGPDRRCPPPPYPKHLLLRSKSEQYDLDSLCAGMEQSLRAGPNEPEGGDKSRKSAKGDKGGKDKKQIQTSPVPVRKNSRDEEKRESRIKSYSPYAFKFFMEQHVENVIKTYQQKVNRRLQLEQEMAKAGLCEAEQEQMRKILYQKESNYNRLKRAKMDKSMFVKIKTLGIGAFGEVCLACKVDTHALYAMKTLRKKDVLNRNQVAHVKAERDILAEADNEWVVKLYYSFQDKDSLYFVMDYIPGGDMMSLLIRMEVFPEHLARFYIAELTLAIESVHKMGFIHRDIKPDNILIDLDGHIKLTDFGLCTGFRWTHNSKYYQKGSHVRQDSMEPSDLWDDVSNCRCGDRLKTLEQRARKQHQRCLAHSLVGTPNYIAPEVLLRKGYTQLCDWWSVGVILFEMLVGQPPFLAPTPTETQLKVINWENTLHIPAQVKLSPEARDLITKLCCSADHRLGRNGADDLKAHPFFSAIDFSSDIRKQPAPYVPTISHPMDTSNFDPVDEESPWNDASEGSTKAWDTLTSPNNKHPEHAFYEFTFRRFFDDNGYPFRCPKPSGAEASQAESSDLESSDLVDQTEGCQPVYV

[12] = target: Phosphatidylinositol 3-kinase catalytic subunit type 3 (Homo sapiens, UniProt Q8NEB9); assay: Binding affinity to VPS34 (unknown origin) assessed as dissociation constant by competitive binding assay
[13] = target: Glycogen synthase kinase-3 beta (Homo sapiens, UniProt P49841)
Description: Binding affinity to GSK3B (unknown origin) assessed as dissociation constant by competitive binding assay

MV4-11 [14] = assay: Antitumor activity against human MV4-11 cells xenografted in BALB/c nude mouse assessed as tumor growth inhibition at 60 mg/kg, po qd administered by gavage for 17 days and measured 3 times per week by caliper method relative to control; format: functional; conditions: MV4-11, 408 h, time 17 day, read-out: TGI

Sequence of Dual specificity tyrosine-phosphorylation-regulated kinase 1B (Q9Y463 whole entry): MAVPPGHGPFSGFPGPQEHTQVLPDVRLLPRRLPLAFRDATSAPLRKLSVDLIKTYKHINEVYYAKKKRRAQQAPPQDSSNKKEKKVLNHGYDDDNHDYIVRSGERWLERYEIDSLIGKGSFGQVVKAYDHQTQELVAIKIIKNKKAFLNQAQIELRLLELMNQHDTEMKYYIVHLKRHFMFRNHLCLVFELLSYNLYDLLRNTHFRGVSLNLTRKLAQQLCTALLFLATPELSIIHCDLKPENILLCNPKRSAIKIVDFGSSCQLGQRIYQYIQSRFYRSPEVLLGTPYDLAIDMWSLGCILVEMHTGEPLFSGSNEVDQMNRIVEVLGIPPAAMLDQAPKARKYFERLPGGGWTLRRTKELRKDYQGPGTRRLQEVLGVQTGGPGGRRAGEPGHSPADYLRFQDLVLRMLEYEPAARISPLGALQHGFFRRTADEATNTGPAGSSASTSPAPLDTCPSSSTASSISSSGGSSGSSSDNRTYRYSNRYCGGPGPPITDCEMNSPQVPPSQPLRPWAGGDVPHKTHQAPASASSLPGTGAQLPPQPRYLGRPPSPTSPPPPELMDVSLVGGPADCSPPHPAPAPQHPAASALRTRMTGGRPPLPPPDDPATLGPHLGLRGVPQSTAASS
Sequence of Dual specificity protein kinase CLK1 (P49759 whole entry): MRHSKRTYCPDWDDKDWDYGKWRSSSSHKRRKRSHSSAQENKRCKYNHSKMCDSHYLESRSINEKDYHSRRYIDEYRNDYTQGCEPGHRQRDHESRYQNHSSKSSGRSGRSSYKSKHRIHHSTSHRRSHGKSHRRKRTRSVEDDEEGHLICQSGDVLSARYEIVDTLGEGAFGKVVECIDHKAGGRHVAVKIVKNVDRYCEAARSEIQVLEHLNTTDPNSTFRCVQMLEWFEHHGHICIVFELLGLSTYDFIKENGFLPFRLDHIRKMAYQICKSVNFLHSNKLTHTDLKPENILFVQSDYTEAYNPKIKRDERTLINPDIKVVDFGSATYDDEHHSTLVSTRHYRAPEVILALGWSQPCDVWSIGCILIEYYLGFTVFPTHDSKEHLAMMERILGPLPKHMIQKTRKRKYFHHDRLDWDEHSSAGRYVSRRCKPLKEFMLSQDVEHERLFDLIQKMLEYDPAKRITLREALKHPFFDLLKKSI
Sequence of Phosphatidylinositol 3-kinase catalytic subunit type 3 (Q8NEB9 whole entry): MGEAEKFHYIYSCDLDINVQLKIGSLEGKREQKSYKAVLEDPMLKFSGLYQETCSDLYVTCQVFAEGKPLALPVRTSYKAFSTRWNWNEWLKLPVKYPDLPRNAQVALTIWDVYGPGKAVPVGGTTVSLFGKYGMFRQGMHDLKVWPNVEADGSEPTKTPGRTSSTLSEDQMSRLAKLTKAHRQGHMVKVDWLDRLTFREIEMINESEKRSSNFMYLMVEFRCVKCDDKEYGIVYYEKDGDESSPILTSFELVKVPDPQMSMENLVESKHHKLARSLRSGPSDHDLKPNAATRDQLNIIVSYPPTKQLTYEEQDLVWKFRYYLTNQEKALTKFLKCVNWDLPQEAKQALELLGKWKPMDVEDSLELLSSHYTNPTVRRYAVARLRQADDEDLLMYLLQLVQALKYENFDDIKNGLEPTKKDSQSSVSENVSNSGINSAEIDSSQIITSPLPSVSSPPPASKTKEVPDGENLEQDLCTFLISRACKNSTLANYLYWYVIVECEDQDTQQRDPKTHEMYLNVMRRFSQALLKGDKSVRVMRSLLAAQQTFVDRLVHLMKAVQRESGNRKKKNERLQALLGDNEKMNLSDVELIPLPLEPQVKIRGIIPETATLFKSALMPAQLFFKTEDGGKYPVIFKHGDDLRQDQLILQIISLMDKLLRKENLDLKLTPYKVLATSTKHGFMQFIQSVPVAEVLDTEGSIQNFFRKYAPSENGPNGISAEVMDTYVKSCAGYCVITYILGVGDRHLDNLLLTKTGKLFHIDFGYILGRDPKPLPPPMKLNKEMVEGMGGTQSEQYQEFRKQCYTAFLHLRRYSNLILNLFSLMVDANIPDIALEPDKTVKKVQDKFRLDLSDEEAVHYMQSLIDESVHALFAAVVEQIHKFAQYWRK
Sequence of Glycogen synthase kinase-3 alpha (P49840 whole entry): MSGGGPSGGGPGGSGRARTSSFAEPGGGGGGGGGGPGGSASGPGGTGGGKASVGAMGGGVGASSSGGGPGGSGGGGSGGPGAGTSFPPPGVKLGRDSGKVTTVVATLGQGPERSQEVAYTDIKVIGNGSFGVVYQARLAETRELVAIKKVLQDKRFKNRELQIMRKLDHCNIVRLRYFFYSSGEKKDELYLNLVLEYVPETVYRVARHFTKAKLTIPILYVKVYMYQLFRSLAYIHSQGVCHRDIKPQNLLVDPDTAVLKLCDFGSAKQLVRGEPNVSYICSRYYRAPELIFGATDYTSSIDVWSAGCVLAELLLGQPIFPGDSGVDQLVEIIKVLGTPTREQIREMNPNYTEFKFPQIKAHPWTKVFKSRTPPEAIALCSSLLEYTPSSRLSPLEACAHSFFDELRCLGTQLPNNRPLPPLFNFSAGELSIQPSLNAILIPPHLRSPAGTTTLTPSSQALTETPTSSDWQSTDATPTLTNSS
Sequence of Dual specificity protein kinase CLK2 (P49760 whole entry): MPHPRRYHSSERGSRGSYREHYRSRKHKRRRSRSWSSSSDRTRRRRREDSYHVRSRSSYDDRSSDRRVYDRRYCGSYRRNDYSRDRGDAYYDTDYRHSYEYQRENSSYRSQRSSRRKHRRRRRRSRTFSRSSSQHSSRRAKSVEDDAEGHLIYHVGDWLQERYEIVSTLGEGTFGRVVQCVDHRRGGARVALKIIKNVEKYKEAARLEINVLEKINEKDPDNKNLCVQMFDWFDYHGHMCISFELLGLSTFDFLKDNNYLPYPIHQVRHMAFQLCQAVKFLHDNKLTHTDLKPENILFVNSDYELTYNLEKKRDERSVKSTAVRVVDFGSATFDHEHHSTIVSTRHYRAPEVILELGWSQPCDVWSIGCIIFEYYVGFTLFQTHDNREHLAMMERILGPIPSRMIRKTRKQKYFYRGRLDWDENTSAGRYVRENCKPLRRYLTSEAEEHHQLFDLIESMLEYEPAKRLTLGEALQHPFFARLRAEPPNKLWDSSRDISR
Sequence of CDK8/Cyclin C (P49336 whole entry): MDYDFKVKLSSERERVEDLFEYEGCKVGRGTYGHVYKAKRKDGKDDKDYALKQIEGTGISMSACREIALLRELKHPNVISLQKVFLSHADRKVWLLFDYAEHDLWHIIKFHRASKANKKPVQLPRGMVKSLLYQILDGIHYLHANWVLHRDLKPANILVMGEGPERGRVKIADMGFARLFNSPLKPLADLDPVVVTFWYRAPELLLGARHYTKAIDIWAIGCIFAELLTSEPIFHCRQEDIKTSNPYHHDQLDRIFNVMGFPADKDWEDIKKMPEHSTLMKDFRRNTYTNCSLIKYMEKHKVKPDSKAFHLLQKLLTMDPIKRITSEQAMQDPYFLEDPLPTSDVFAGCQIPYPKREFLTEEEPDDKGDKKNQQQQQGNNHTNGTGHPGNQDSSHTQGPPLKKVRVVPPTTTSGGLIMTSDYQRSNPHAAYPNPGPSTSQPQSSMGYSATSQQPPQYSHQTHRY
Sequence of CDK8/Cyclin C (P24863 whole entry, further chain): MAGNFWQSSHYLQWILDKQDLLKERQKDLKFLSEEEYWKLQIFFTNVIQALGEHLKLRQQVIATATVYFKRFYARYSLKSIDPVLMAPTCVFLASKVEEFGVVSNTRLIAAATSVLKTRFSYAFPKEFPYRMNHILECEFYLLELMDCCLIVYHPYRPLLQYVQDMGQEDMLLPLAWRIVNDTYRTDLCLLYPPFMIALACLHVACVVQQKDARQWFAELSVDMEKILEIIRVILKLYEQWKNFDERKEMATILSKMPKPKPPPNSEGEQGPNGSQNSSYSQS
Sequence of Glycogen synthase kinase-3 beta (P49841 whole entry): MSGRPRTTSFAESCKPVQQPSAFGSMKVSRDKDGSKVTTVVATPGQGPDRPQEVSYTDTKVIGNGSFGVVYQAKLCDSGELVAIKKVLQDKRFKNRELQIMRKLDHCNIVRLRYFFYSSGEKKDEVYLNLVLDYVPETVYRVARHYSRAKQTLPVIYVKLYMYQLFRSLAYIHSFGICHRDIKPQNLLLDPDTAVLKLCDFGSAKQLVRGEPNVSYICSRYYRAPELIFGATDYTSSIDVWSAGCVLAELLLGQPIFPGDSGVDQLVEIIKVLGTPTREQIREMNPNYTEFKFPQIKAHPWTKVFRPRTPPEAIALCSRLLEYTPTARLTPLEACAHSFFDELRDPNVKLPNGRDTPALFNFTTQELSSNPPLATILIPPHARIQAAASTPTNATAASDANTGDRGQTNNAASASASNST

| pIC50 (CDK8/Cyclin C) | pIC50 (MV4-11 [1]) | CLint scaled at 1 µM [2] | CLint scaled at 1 µM [3] | CLint scaled at 1 µM [4] | Compound | further results |
| --- | --- | --- | --- | --- | --- | --- |
| 8.21 |  |  |  |  | Cc1n[nH]c2ccc(-c3nnc(C)n3Cc3ccc(C#N)cc3)cc12 |  |
| 8.14 | 6.43 |  |  |  | Cc1n[nH]c2ccc(-c3ncc(C)n3Cc3ccc(Cl)cc3)cc12 |  |
| 9.40 | 8.32 | 823 mL/min/kg | 385 mL/min/kg | 66.1 mL/min/kg | Cc1n[nH]c2ccc(-c3nnn(C)c3Cc3ccc(Cl)cc3)cc12 |  |
| 9.06 | 7.14 | 273 mL/min/kg | 54.5 mL/min/kg | 10.8 mL/min/kg | Cc1nnc(-c2ccc3[nH]nc(Cl)c3c2)n1Cc1ccc(Cl)cc1 | Vd [5]: 2.7 L/kg; bioavailability [6]: 50.8% |
| 9.40 | 8.62 | 540 mL/min/kg | 151 mL/min/kg | 23.1 mL/min/kg | Cc1n[nH]c2ccc(-c3nnc4n3[C@H](c3ccc(Cl)cc3)CC4)cc12 | Vd [5]: 0.7 L/kg; bioavailability [6]: 63.7%; pKd [7]: 7.82; pKd [8]: 8.68; pKd [9]: 6.48; pKd [10]: 8.37; pKd [11]: 7.74; pKd [12]: 7.17 |
| 9.05 | 7.93 | 339 mL/min/kg | 270 mL/min/kg | < 8.6 mL/min/kg | Cc1n[nH]c2ccc(-c3nnc4n3[C@H](c3ccc(Cl)cc3)CC4)nc12 | Vd [5]: 0.4 L/kg; bioavailability [6]: 63.7%; pKd [7]: 7.15; pKd [8]: 7.19; pKd [9]: 5.89; pKd [10]: 7.13; pKd [11]: 6.34; pKd [12]: 7.70; pKd [13]: 7.41 |
| 7.08 |  |  |  |  | COc1nnc(-c2ccc3[nH]nc(C)c3c2)n1Cc1ccc(Cl)cc1 |  |
| 8.27 |  |  |  |  | CNc1n[nH]c2ccc(-c3nnc4n3C(c3ccc(Cl)cc3)CC4)cc12 (racemic) |  |
| 9.32 |  | 1310 mL/min/kg |  | 64.9 mL/min/kg | Cc1n[nH]c2ccc(-c3nnc4n3[C@H](c3ccc(Cl)cc3)CNC4)cc12 |  |
| 8.82 | 7.61 | 368 mL/min/kg | 104 mL/min/kg | < 8.6 mL/min/kg | Cc1n[nH]c2ncc(-c3nnc4n3[C@H](c3ccc(Cl)cc3)CC4)cc12 | Vd [5]: 0.7 L/kg; bioavailability [6]: 63.4%; pKd [7]: 7.07; pKd [8]: 7.09; pKd [9]: 5.68; pKd [10]: 8.19; pKd [11]: 6.14; pKd [12]: 5.54; pKd [13]: 8.42 |
| 7.45 |  |  |  |  | CNc1n[nH]c2ncc(-c3nnc4n3C(c3ccc(Cl)cc3)CC4)cc12 (racemic) |  |
| 9.08 | 8.21 |  |  |  | Cc1n[nH]c2ccc(-c3nnc4n3[C@H](c3ccc(Cl)cc3)CN(C)C4)cc12 |  |
| 9.15 |  | 536 mL/min/kg |  | 59.2 mL/min/kg | Cc1n[nH]c2ccc(-c3cnn(C)c3Cc3ccc(Cl)cc3)cc12 |  |
| 8.48 |  |  |  |  | Cc1n[nH]c2ccc(-c3nnc(C)n3Cc3ccc(Cl)cc3)nc12 |  |
| 9.20 | 8.12 | 720 mL/min/kg | 118 mL/min/kg | 92 mL/min/kg | Cc1n[nH]c2ccc(-c3nnc4n3[C@H](c3ccc(Cl)cc3)COC4)cc12 | Vd [5]: 1.2 L/kg; bioavailability [6]: 19.4% |
| < 6.00 |  |  |  |  | Cc1n[nH]c2ccc(-c3nnc(O)n3Cc3ccc(Cl)cc3)cc12 |  |
| 9.31 | 8.07 | 342 mL/min/kg | 54.4 mL/min/kg | 12.2 mL/min/kg | Cc1n[nH]c2ccc(-c3nnc(C)n3Cc3ccc(Cl)cc3)cc12 | Vd [5]: 0.8 L/kg; bioavailability [6]: 82.1%; pKd [7]: 7.37; pKd [8]: 7.44; pKd [9]: 5.85; pKd [10]: 6.92; pKd [11]: 7.42; pKd [12]: 5.74; pKd [13]: 7.25 |
| 7.10 |  |  |  |  | Cc1n[nH]c2ccc(-c3nnc(C)n3Cc3ccc(Cl)cn3)cc12 |  |
| 8.32 |  |  |  |  | Cc1n[nH]c2ccc(-c3nnc(C(F)(F)F)n3Cc3ccc(Cl)cc3)cc12 |  |
| 6.56 |  |  |  |  | Cc1n[nH]c2ccc(-c3nnc(C)n3C(C)c3ccc(Cl)cc3)cc12 (stereo not given) |  |
| 7.85 | 6.60 |  |  |  | Cc1c(Br)c(Br)c2c3c1nc(N1CCNCC1)n3CCC2 [SEL-120 FREE BASE] | inhibition in vivo at 60 mg/kg (MV4-11 [14]): 55.6% |
| 7.77 |  |  |  |  | Cc1n[nH]c2ncc(-c3nnc(C)n3Cc3ccc(Cl)cc3)cc12 |  |
| 9.43 |  | 843 mL/min/kg |  | 87.1 mL/min/kg | Cc1n[nH]c2ccc(-c3nnc4n3[C@H](c3ccc(Cl)cc3)CCC4)cc12 |  |

— ChEMBL document CHEMBL5380857, “Discovery of Potent, Selective, and Orally Bioavailable Small-Molecule Inhibitors of CDK8 for the Treatment of Cancer” (J Med Chem, 2023)
